Laboratory results taken from publication PMC4180279 (Biochemistry, 2014).
No end group written: not given here.

Legend:
NCS-1 = target: T1, NCS-1 (Homo sapiens, UniProt P62166); test: Isothermal titration calorimetry, NCS-1 titrated into PQIQ peptide; format: binding; conditions: 100 μM PQIQ in cell, 1 mM NCS-1 in syringe, 25 °C, pH 7.5; complex aggregates
T1 construct: His tag (TEV-cleavable) (N, cleaved yes); made in house; host or cells: Escherichia coli BL21(DE3)
Procedure: The peptide used corresponds to residues 1903–1929 of the human P/Q receptor. The synthetic P/Q peptide, […] (hereafter termed the PQIQ peptide), was purchased from GenicBio. The peptide was delivered >95% pure.
Expression was induced overnight at 18 °C; cells were harvested, resuspended into lysis buffer [50 mM Tris-HCl (pH 7.5), 200 mM NaCl, 5 mM CaCl2, and Complete EDTA Free Protease Inhibitor (Roche Applied Science)], lysed, centrifuged, filtered, and loaded onto the Hiprep 16/10 Phenyl FF High Sub (GE Healthcare) column that was pre-equilibrated with buffer A [50 mM Tris-HCl (pH 7.5), 200 mM NaCl, and 5 mM CaCl2]. The column was extensively washed with buffer A and NCS-1 eluted using Milli-Q water. […] The purity of the sample was assessed by sodium dodecyl sulfate–polyacrylamide gel electrophoresis (SDS–PAGE) and deemed to be >95% pure. The eluted peak was concentrated and stored at −80 °C.
(§1) ITC experiments were performed using a MicroCal ITC200 instrument. […] If necessary, minor adjustments were made to the pH of the peptide solution. […] One injection of 0.2 μL, followed by 20 injections of 2 μL, was made with a 180 s spacing to allow the baseline to return after each injection. All experiments were performed in triplicate. The data were analyzed with a one-site (three-parameter) curve fitting conducted using the MicroCal-supported ITC module within Origin version 7.

[1] = Solubility / aggregation observed in ITC experiments; format: physicochemical; conditions: limits use of peptide as titrant in ITC; 50 mM Tris (pH 7.5), 50 mM NaCl, 5 mM CaCl2
Procedure: as §1

T1 sequence (P62166 whole entry, species assumed): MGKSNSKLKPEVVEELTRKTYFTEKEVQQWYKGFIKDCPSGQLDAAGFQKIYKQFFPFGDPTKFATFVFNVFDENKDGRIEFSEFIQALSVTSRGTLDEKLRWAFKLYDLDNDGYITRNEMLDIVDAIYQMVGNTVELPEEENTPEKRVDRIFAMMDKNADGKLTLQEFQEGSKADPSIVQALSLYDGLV

For “TVGKIYAAMMIMEYYRQSKAKKLQAMR [PQIQ peptide]”, the equilibrium binding constant (NCS-1) was “not possible to obtain reliable equilibrium binding constants” and the solubility [1] was “limitations in PQIQ peptide solubility”.
